Measured values taken from the supplement of paper PMC4862054.

Experiments:
Experiment in all cases: normalised response (% of control), CellTiter-Glo; higher = more viable cells (100 = DMSO, 0 = benzethonium chloride kill control)
Conditions in all cases: incubation time: 72 h
Hs578T = test system: Hs578T
In short: (§1)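 Compound was dispensed into 384-well plates at 5 concentrations in 10-fold steps spanning a 10,000-fold range specific to that compound. Breast cancer cell lines were added as 20 µl suspension and left for 72 h before CellTox Green fluorescence (485/520 nm) and then CellTiter-Glo luminescence, read after 10 min at room temperature. Each reported value is the normalised signal at one concentration, with 0.1 % DMSO set at 100 and a positive kill control at 0 on each plate.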

HDQ-P1 = test system: HDQ-P1
In short: as §1

CAL-148 = test system: CAL-148
In short: as §1

CAL-51 = test system: CAL-51
In short: as §1

MCF-10A = test system: MCF-10A
In short: as §1

BT-474 = test system: BT-474
In short: as §1

MDA-MB-453 = test system: MDA-MB-453
In short: as §1

MFM-223 = test system: MFM-223
In short: as §1

BT-549 = test system: BT-549
In short: as §1

DU-4475 = test system: DU-4475
In short: as §1

SMILES	normalised response (Hs578T)	normalised response (HDQ-P1)	normalised response (CAL-148)	normalised response (CAL-51)	normalised response (MCF-10A)	normalised response (BT-474)	normalised response (MDA-MB-453)	normalised response (MFM-223)	normalised response (BT-549)	normalised response (DU-4475)
CN1CCN(c2nc(C3=C(c4c[nH]c5ccccc45)C(=O)NC3=O)c3ccccc3n2)CC1 [Sotrastaurin] (10000 nM)	108%	86.2%	84.3%	92.5%	94.2%	103%	108%	67.4%	97.9%	–
COc1cc2c(Oc3ccc(NC(=O)C4(C(=O)Nc5ccc(F)cc5)CC4)cc3F)ccnc2cc1OCCCN1CCOCC1 [Foretinib] (1000 nM)	76%	66.1%	48.9%	67.3%	60.7%	73%	125%	44.6%	75.5%	–
CO[C@H](C(=O)[C@@H](O)[C@@H](C)O)[C@@H]1Cc2cc3cc(O[C@H]4C[C@@H](O[C@@H]5C[C@@H](O)[C@H](O)[C@@H](C)O5)[C@H](O)[C@@H](C)O4)c(C)c(O)c3c(O)c2C(=O)[C@H]1O[C@H]1C[C@@H](O[C@@H]2C[C@@H](O)[C@@H](O[C@@H]3C[C@](C)(O)[C@H](O)[C@@H](C)O3)[C@@H](C)O2)[C@H](O)[C@@H](C)O1 [Plicamycin] (10000 nM)	8.19%	19.1%	6.34%	9.56%	5.35%	9.55%	16.1%	29.1%	1.99%	–
CC(C)C[C@H](NC(=O)[C@H](CCc1ccccc1)NC(=O)CN1CCOCC1)C(=O)N[C@@H](Cc1ccccc1)C(=O)N[C@@H](CC(C)C)C(=O)[C@@]1(C)CO1 [Carfilzomib] (100 nM)	–	–	–	–	–	–	–	–	–	14.6%
NC1(c2ccc(-c3nc4ccn5c(=O)[nH]nc5c4cc3-c3ccccc3)cc2)CCC1 [MK-2206] (100 nM)	–	–	–	–	–	–	–	–	–	97.5%
CC(C)C(=O)Nc1ccc([N+](=O)[O-])c(C(F)(F)F)c1 [Flutamide] (1000 nM)	–	–	–	–	–	–	–	–	–	95.9%
C[C@@H]1C[C@H]2[C@@H]3CCC4=CC(=O)C=C[C@]4(C)[C@@]3(F)[C@@H](O)C[C@]2(C)[C@@]1(O)C(=O)CO [Dexamethasone] (10000 nM)	105%	82%	98.2%	132%	79.9%	137%	78.7%	94.2%	96.7%	–
C[C@@H]1C[C@H]2[C@@H]3CCC4=CC(=O)C=C[C@]4(C)[C@@]3(F)[C@@H](O)C[C@]2(C)[C@@]1(O)C(=O)CO [Dexamethasone] (1000 nM)	–	–	–	–	–	–	–	–	–	96.2%
CO[C@H]1C[C@@H]2CC[C@@H](C)[C@@](O)(O2)C(=O)C(=O)N2CCCC[C@H]2C(=O)O[C@H]([C@H](C)C[C@@H]2CC[C@@H](O)[C@H](OC)C2)CC(=O)[C@H](C)/C=C(\C)[C@@H](O)[C@@H](OC)C(=O)[C@H](C)C[C@H](C)/C=C/C=C/C=C/1C [Sirolimus] (100 nM)	68.8%	73.4%	59.6%	61.3%	85.7%	78.8%	53.2%	64.9%	54.1%	–
CN1CCN(c2nc(C3=C(c4c[nH]c5ccccc45)C(=O)NC3=O)c3ccccc3n2)CC1 [Sotrastaurin] (1000 nM)	–	–	–	–	–	–	–	–	–	86.4%
CCCCCOC(=O)Nc1nc(=O)n([C@@H]2O[C@H](C)[C@@H](O)[C@H]2O)cc1F [Capecitabine] (1000 nM)	–	–	–	–	–	–	–	–	–	98.6%
Cn1nnc2c(C(N)=O)ncn2c1=O [Temozolomide] (10000 nM)	95.7%	95.1%	95.8%	106%	96.2%	91.2%	97.9%	101%	100%	–
CCCCCOC(=O)Nc1nc(=O)n([C@@H]2O[C@H](C)[C@@H](O)[C@H]2O)cc1F [Capecitabine] (10000 nM)	105%	81.3%	109%	107%	102%	95.3%	103%	102%	108%	–
O=C(c1cc(Cc2n[nH]c(=O)c3ccccc23)ccc1F)N1CCN(C(=O)C2CC2)CC1 [Olaparib] (1000 nM)	–	–	–	–	–	–	–	–	–	92.5%
NC(=O)c1cccc2cn(-c3ccc([C@@H]4CCCNC4)cc3)nc12 [MK-4827] (10000 nM)	85.2%	94.3%	71.8%	65.8%	101%	85.8%	108%	106%	83.7%	–
COc1cc2c(N3CCN(C(=O)Nc4ccc(OC(C)C)cc4)CC3)ncnc2cc1OCCCN1CCCCC1 [Tandutinib] (100 nM)	–	–	–	–	–	–	–	–	–	99.7%
CO[C@H](C(=O)[C@@H](O)[C@@H](C)O)[C@@H]1Cc2cc3cc(O[C@H]4C[C@@H](O[C@@H]5C[C@@H](O)[C@H](O)[C@@H](C)O5)[C@H](O)[C@@H](C)O4)c(C)c(O)c3c(O)c2C(=O)[C@H]1O[C@H]1C[C@@H](O[C@@H]2C[C@@H](O)[C@@H](O[C@@H]3C[C@](C)(O)[C@H](O)[C@@H](C)O3)[C@@H](C)O2)[C@H](O)[C@@H](C)O1 [Plicamycin] (1000 nM)	–	–	–	–	–	–	–	–	–	99.2%
CC(C)C[C@H](NC(=O)[C@H](CCc1ccccc1)NC(=O)CN1CCOCC1)C(=O)N[C@@H](Cc1ccccc1)C(=O)N[C@@H](CC(C)C)C(=O)[C@@]1(C)CO1 [Carfilzomib] (1000 nM)	0.58%	0.05%	7.77%	1.12%	0.46%	6.38%	14.3%	6.19%	2.23%	–
COc1cc2c(Oc3ccc(NC(=O)C4(C(=O)Nc5ccc(F)cc5)CC4)cc3F)ccnc2cc1OCCCN1CCOCC1 [Foretinib] (100 nM)	–	–	–	–	–	–	–	–	–	99.9%
O=C(O)CC[C@H]1CC[C@@](c2cc(F)ccc2F)(S(=O)(=O)c2ccc(Cl)cc2)CC1 [MK-0752] (1000 nM)	98.5%	95.5%	115%	126%	95.6%	95.4%	108%	100%	93%	–

SMILES	normalised response (Hs578T)	normalised response (HDQ-P1)	normalised response (CAL-148)	normalised response (CAL-51)	normalised response (MCF-10A)	normalised response (BT-474)	normalised response (MDA-MB-453)	normalised response (MFM-223)	normalised response (BT-549)	normalised response (DU-4475)
Cn1nnc2c(C(N)=O)ncn2c1=O [Temozolomide] (1000 nM)	–	–	–	–	–	–	–	–	–	95%
CC(C)C(=O)Nc1ccc([N+](=O)[O-])c(C(F)(F)F)c1 [Flutamide] (10000 nM)	101%	92.4%	101%	89.6%	96.7%	95.6%	96.1%	90.9%	94.1%	–
Cc1cc2c(F)c(Oc3ncnn4cc(OC[C@@H](C)O)c(C)c34)ccc2[nH]1 [Brivanib] (1000 nM)	101%	97.7%	112%	83%	108%	108%	108%	110%	98.3%	–
C[C@]12C=CC(=O)C=C1CC[C@@H]1[C@@H]2C(=O)C[C@@]2(C)[C@H]1CC[C@]2(O)C(=O)CO [Prednisone] (10000 nM)	102%	98.6%	109%	118%	113%	105%	100%	97.4%	94.6%	–
CC/C(=C(\c1ccccc1)c1ccc(OCCN(C)C)cc1)c1ccccc1 [Tamoxifen] (10000 nM)	87.8%	99.1%	77.7%	71.7%	74.3%	69.3%	23.5%	58.2%	78.2%	–
O=NN(CCCl)C(=O)NC1CCCCC1 [Lomustine] (1000 nM)	–	–	–	–	–	–	–	–	–	99.2%
Cc1c(N)nc([C@H](CC(N)=O)NC[C@H](N)C(N)=O)nc1C(=O)N[C@H](C(=O)N[C@H](C)[C@@H](O)[C@H](C)C(=O)N[C@H](C(=O)NCCc1nc(-c2nc(C(=O)NCCC[S+](C)C)cs2)cs1)[C@@H](C)O)[C@@H](OC1OC(CO)C(O)C(O)C1OC1OC(CO)C(O)C(OC(N)=O)C1O)c1cnc[nH]1 (stereo not given in full) [Bleomycin] (10000 nM)	69.6%	78.5%	63.3%	37.9%	53%	65.3%	124%	108%	32.6%	–
C[C@@H](C(=O)O)c1ccc(-c2ccccc2)c(F)c1 [Tarenflurbil] (1000 nM)	–	–	–	–	–	–	–	–	–	94.6%
CCN(CC)CCOc1ccc(C(=C(Cl)c2ccccc2)c2ccccc2)cc1 [Clomifene] (1000 nM)	–	–	–	–	–	–	–	–	–	97.4%
O=NN(CCCl)C(=O)NC1CCCCC1 [Lomustine] (10000 nM)	103%	99.5%	97%	110%	104%	97.2%	107%	106%	104%	–
CC[C@@H]1C(=O)N(C)c2cnc(Nc3ccc(C(=O)N[C@H]4CC[C@H](N5CCN(CC6CC6)CC5)CC4)cc3OC)nc2N1C(C)C [Volasertib] (100 nM)	–	–	–	–	–	–	–	–	–	49.1%
CCN(CC)CCOc1ccc(C(=C(Cl)c2ccccc2)c2ccccc2)cc1 [Clomifene] (10000 nM)	26.6%	82.1%	74.4%	98.5%	46.1%	8.15%	14.7%	26.5%	71.3%	–
Cc1cc2c(F)c(Oc3ncnn4cc(OC[C@@H](C)O)c(C)c34)ccc2[nH]1 [Brivanib] (100 nM)	–	–	–	–	–	–	–	–	–	101%
C[C@]12C=CC(=O)C=C1CC[C@@H]1[C@@H]2C(=O)C[C@@]2(C)[C@H]1CC[C@]2(O)C(=O)CO [Prednisone] (1000 nM)	–	–	–	–	–	–	–	–	–	99%
O=C(O)CC[C@H]1CC[C@@](c2cc(F)ccc2F)(S(=O)(=O)c2ccc(Cl)cc2)CC1 [MK-0752] (100 nM)	–	–	–	–	–	–	–	–	–	99.2%
Cc1c(N)nc([C@H](CC(N)=O)NC[C@H](N)C(N)=O)nc1C(=O)N[C@H](C(=O)N[C@H](C)[C@@H](O)[C@H](C)C(=O)N[C@H](C(=O)NCCc1nc(-c2nc(C(=O)NCCC[S+](C)C)cs2)cs1)[C@@H](C)O)[C@@H](OC1OC(CO)C(O)C(O)C1OC1OC(CO)C(O)C(OC(N)=O)C1O)c1cnc[nH]1 (stereo not given in full) [Bleomycin] (1000 nM)	–	–	–	–	–	–	–	–	–	92.1%
NC(=O)NO [Hydroxyurea] (10000 nM)	–	–	–	–	–	–	–	–	–	100%
Nc1nc(Cl)nc2c1ncn2[C@@H]1O[C@H](CO)[C@@H](O)[C@@H]1F [Clofarabine] (1000 nM)	–	–	–	–	–	–	–	–	–	70.9%
NC(=O)c1cccc2cn(-c3ccc([C@@H]4CCCNC4)cc3)nc12 [MK-4827] (1000 nM)	–	–	–	–	–	–	–	–	–	86%
